From PubChem BioAssay (NCI) come the findings set out here.

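Five concentrations, 48 hours, 96-well plates. Abbreviation: GI50, concentration required for 50% inhibition of growth. TGI is the concentration that stops growth completely.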

Among the test systems are 786-0 renal; CCRF-CEM leukemia; SK-MEL-2 melanoma; DU-145 prostate; A498 renal; HOP-92 NSCLC; OVCAR-8 ovarian; NCI-H226 lung; HOP-62 NSCLC; TK-10 renal.
Test in all cases: NCI-60 cell line screen, 48 h

In the case of `COc1ccc(CCNc2nc3ccccc3c3[nH]c4ccccc4c23)cc1OC`, the GI50 was 1.7 µM with 786-0 renal; 1.87 µM in the assay on CCRF-CEM leukemia; 1.98 µM in the assay with SK-MEL-2 melanoma; 3.85 µM with DU-145 prostate; 2.75 µM in the assay with A498 renal; 2.43 µM in the assay with HOP-92 NSCLC. For the same compound, the GI50 with OVCAR-8 ovarian is 2.02 µM; in the assay on NCI-H226 lung, 7.82 µM; with HOP-62 NSCLC it was 10.9 µM; in the assay on TK-10 renal, 4.47 µM. Further, the TGI in the assay with 786-0 renal amounted to 3.28 µM; with CCRF-CEM leukemia it was 13.8 µM; with SK-MEL-2 melanoma it was 3.77 µM; in the assay with DU-145 prostate, 15.8 µM; with A498 renal, 9.48 µM; in the assay with HOP-92 NSCLC it was 8 µM. For the same compound, the TGI with OVCAR-8 ovarian is 5.54 µM; in the assay with NCI-H226 lung, 25 µM; in the assay with HOP-62 NSCLC, 24.4 µM; with TK-10 renal, 17 µM.
As for `[O-][n+]1onc2c3nn(-c4ccccc4)nc3ccc21`, the TGI with 786-0 renal was over 100 µM; in the assay on CCRF-CEM leukemia, over 100 µM; in the assay on SK-MEL-2 melanoma it was over 100 µM; in the assay on DU-145 prostate, 57.8 µM; in the assay on A498 renal, over 100 µM; with HOP-92 NSCLC it was over 100 µM. For the same compound, the TGI with OVCAR-8 ovarian was over 100 µM; in the assay on NCI-H226 lung, over 100 µM; with HOP-62 NSCLC, over 100 µM; in the assay with TK-10 renal, over 88.7 µM.
As to `COc1ccc(/C=C2/SC(=Nc3c(C)nn(-c4ccccc4)c3N)NC2=O)cc1`, the GI50 in the assay on 786-0 renal is 6.94 µM; with CCRF-CEM leukemia, 2.14 µM; with SK-MEL-2 melanoma, 3.99 µM; in the assay on DU-145 prostate, 3.73 µM; in the assay with A498 renal, 1.07 µM; in the assay with HOP-92 NSCLC it was 1.4 µM. Also, the GI50 in the assay with OVCAR-8 ovarian is 13.7 µM; in the assay with NCI-H226 lung, 8.28 µM; in the assay with HOP-62 NSCLC, 4.12 µM; in the assay with TK-10 renal, 7.12 µM. The TGI in the assay on 786-0 renal stood at 89.4 µM; with CCRF-CEM leukemia, 20.8 µM; in the assay with SK-MEL-2 melanoma it was 17.2 µM; with DU-145 prostate, 23.1 µM; with A498 renal, 2.79 µM; in the assay on HOP-92 NSCLC, 14.4 µM. Besides, the TGI was 77.9 µM in the assay with OVCAR-8 ovarian, 45.3 µM in the assay with NCI-H226 lung, 39.9 µM in the assay with HOP-62 NSCLC and 57.3 µM with TK-10 renal.
For the compound `Cc1cc2c(-c3nc4ccccc4[nH]3)c(O)c(O)cc2c(O)c1-c1c(C)cc2c(-c3nc4ccccc4[nH]3)c(O)c(O)cc2c1O`, the GI50 in the assay with 786-0 renal was 0.0801 µM; in the assay with CCRF-CEM leukemia, 0.0113 µM; in the assay with SK-MEL-2 melanoma, 0.0993 µM; in the assay on DU-145 prostate it was 0.0205 µM; with A498 renal, 0.00875 µM; in the assay with HOP-92 NSCLC, 0.0232 µM. Besides, the GI50 with OVCAR-8 ovarian was 0.0664 µM; in the assay with NCI-H226 lung, 0.0563 µM; in the assay with HOP-62 NSCLC it was 0.0717 µM; with TK-10 renal it was 0.0386 µM. Further, the TGI in the assay on 786-0 renal is 1.01 µM; with CCRF-CEM leukemia, over 50 µM; with SK-MEL-2 melanoma, 10.6 µM; with DU-145 prostate it was 10.1 µM; with A498 renal it was 0.0374 µM; in the assay on HOP-92 NSCLC it was 1.54 µM. Further, the TGI with OVCAR-8 ovarian is over 50 µM; in the assay on NCI-H226 lung, 0.827 µM; in the assay on HOP-62 NSCLC, 0.864 µM; in the assay with TK-10 renal, over 42.1 µM.
As to `O=c1c(Cl)nsnc1Cl`, the TGI was 3.32 µM with 786-0 renal; 3.27 µM in the assay with CCRF-CEM leukemia; over 100 µM in the assay on SK-MEL-2 melanoma; 31.5 µM in the assay with DU-145 prostate; 28.8 µM in the assay on A498 renal; 13 µM in the assay on HOP-92 NSCLC. In addition, the TGI in the assay on OVCAR-8 ovarian is over 91.6 µM; in the assay on NCI-H226 lung it was 53.2 µM; with HOP-62 NSCLC, 34.5 µM; in the assay on TK-10 renal, 7.93 µM.
For `Cn1cc(-c2ccc3cc(-c4ccc(CC(=O)Nc5cc(C(C)(C)C)nn5C)cc4)cnc3c2)cn1`, the GI50 in the assay on 786-0 renal was 0.351 µM; in the assay with CCRF-CEM leukemia, 0.375 µM; in the assay with SK-MEL-2 melanoma it was 0.138 µM; with DU-145 prostate it was 0.17 µM; with A498 renal, 0.0246 µM; in the assay on HOP-92 NSCLC, 0.401 µM. The GI50 with OVCAR-8 ovarian was 0.274 µM; in the assay on NCI-H226 lung it was 0.317 µM; in the assay with HOP-62 NSCLC, 0.409 µM; in the assay on TK-10 renal it was 0.492 µM. Moreover, the TGI is over 100 µM in the assay on 786-0 renal; over 100 µM in the assay with CCRF-CEM leukemia; over 100 µM in the assay with DU-145 prostate; 0.175 µM in the assay with A498 renal; over 100 µM in the assay on HOP-92 NSCLC; over 100 µM with OVCAR-8 ovarian. For the same compound, the TGI with NCI-H226 lung, in the assay with HOP-62 NSCLC and with TK-10 renal was over 100 µM in each case.
In the case of `COc1cc([C@@H]2c3cc4c(cc3[C@H](OC3OC5COC(c6ccccc6)OC5C(O)C3O)[C@H]3COC(=O)[C@H]23)OCO4)cc(OC)c1OC` (stereo partly drawn), the GI50 was 0.594 µM in the assay with 786-0 renal; 0.57 µM in the assay with CCRF-CEM leukemia; 0.978 µM in the assay with SK-MEL-2 melanoma; 0.324 µM in the assay with DU-145 prostate; 0.364 µM in the assay with A498 renal; 2.73 µM in the assay on HOP-92 NSCLC. Also, the GI50 with OVCAR-8 ovarian was 0.355 µM; with NCI-H226 lung, 4.58 µM; with HOP-62 NSCLC it was 0.456 µM; in the assay on TK-10 renal it was 1.13 µM. The TGI in the assay with 786-0 renal came to 19.6 µM; with SK-MEL-2 melanoma, 5.64 µM; with DU-145 prostate, 2.04 µM; with A498 renal, 3.4 µM; with HOP-92 NSCLC, 18.8 µM; with OVCAR-8 ovarian, 2.12 µM. Also, the TGI in the assay with NCI-H226 lung came to 37.6 µM; in the assay on HOP-62 NSCLC it was 5.32 µM; in the assay with TK-10 renal, 5.51 µM.
As for `CCOC(=O)c1cnc2ccc(Cl)cc2c1NCCCN(C)C`, the GI50 with 786-0 renal was 43 µM; in the assay on CCRF-CEM leukemia, 22.2 µM; in the assay on SK-MEL-2 melanoma, 29.1 µM; in the assay on DU-145 prostate it was 25.5 µM; in the assay with A498 renal it was 15.6 µM; in the assay with HOP-92 NSCLC, 20.3 µM. Further, the GI50 was 11.6 µM with OVCAR-8 ovarian, 19.9 µM in the assay on NCI-H226 lung, 23 µM in the assay with HOP-62 NSCLC and 27.5 µM with TK-10 renal. Further, the TGI in the assay with 786-0 renal was over 100 µM; with CCRF-CEM leukemia, over 100 µM; in the assay on SK-MEL-2 melanoma, 62.6 µM; in the assay on DU-145 prostate it was 76.3 µM; with A498 renal it was 37.8 µM; in the assay on HOP-92 NSCLC it was 98.4 µM. Moreover, the TGI in the assay with OVCAR-8 ovarian was 47 µM; in the assay on NCI-H226 lung it was 92.2 µM; with HOP-62 NSCLC, 94.8 µM; in the assay on TK-10 renal, over 100 µM.
Take `CCCCC1(N=[N+]=[N-])C(=O)c2cccc3c2N(CCC3)C1=O` (stereo not drawn): the TGI in the assay with 786-0 renal, in the assay on CCRF-CEM leukemia, in the assay with SK-MEL-2 melanoma, in the assay on DU-145 prostate, with A498 renal and in the assay on HOP-92 NSCLC was over 100 µM each time. The TGI in the assay with OVCAR-8 ovarian, in the assay with NCI-H226 lung, in the assay with HOP-62 NSCLC and in the assay on TK-10 renal was over 100 µM throughout.
